Test results from patent publication US6242461A, “Use of aryl substituted azabenzimidazoles in the treatment of HIV and AIDS related diseases” (Pfizer Inc., priority 2000, dated 2001).

Target: HIV-1 RT (Human immunodeficiency virus type 1 group M subtype B, UniProt P04585)
Experiment: HIV Reverse Transcriptase Assay (RNA-dependent DNA polymerase activity, 3H-dCTP incorporation)
Format: biochemical
Conditions: 60 nM HIV-RT, tRNA-Lys3 primer/viral RNA template, 45 minutes, room temperature, 0.7% DMSO
Procedure: Utilizing the Reverse Transcriptase (RT) Assay described below, compounds can be tested for their ability to inhibit the RNA-dependent DNA polymerase activity of HIV-1 RT. Compounds described in the Examples which appear below, were so tested.
HIV Reverse Transcriptase Assay:
HIV reverse transcriptase activity is assessed by following the incorporation of ^3 H-dCTP into newly synthesized DNA using the natural tRNA^Lys3 primer annealed to a viral RNA template sequence. Assays are performed in a final volume of 100 μL in 96-well plates. Briefly, assay buffer (50 mM Tris pH 7.5, 50 mM NaCl, 5 mM MgCl2), primer/template (10-60 nM), dNTPs (dATP, dGTP, dTTP; 100 nM each), and ^3 H-dCTP (180 nM) are combined, and the reaction is initiated with 60 nM HIV-RT. After 45 minutes at room temperature, the assay is quenched with 0.1 M EDTA and harvested onto a DEAE filter using a Skatron Harvester with a solution of 5% Na2 HPO4 -2% sodium pyrophosphate. The filter mats are dried and placed into a plastic bag with 10 ml of scintillant, and counted on a Wallac BetaPlate reader. Non-specific activity is determined by adding 0.1 M EDTA at the start of the assay.
To assess the activity of compounds on HIV-RT activity, compounds are added to the assay prior to addition of enzyme. Compounds are dissolved in 14% DMSO (0.7% final), and tested at 32, 10, 3.2, 1.0, 0.32, and 0.10 μM in triplicate. % Inhibition is calculated according to the following equation: […]

`COc1ccc2sc(=O)n(Cc3ccc(-n4c(C)nc5cnccc54)cc3)c2c1` [Example 8, 5-Methoxy-3-[4-(2-methyl-imidazo[4,5-c]pyridin-1-yl)-benzyl]-3H-benzothiazol-2-one] showed an inhibition at 10 µM of 41%.
For `Cc1nc2cnccc2n1-c1ccc(Cn2c(=O)oc3ccccc32)cc1` [Example 13, 3-[4-(2-Methyl-imidazo[4,5-c]pyridin-1-yl)-benzyl]-3H-benzooxazol-2-one], the inhibition at 10 µM was 61%.
With `Cc1nc2cnccc2n1-c1ccc(Cn2c(=O)sc3ccccc32)cc1` [Example 1, 3-[4-(2-Methyl-imidazo[4,5-c]pyridin-1-yl)-benzyl]-3H-benzothiazol-2-one] the inhibition at 10 µM was 78%.
`Cc1nc2cnccc2n1-c1ccc(Cn2c(=O)sc3cc(F)ccc32)cc1` [Example 2, 6-Fluoro-3-[4-(2-methyl-imidazo[4,5-c]pyridin-1-yl)-benzyl]-3H-benzothiazol-2-one] showed an inhibition at 10 µM of 76%.
`Cc1nc2cnccc2n1-c1ccc(Cn2c(=O)sc3cc(Cl)ccc32)cc1` [Example 7, 6-Chloro-3-[4-(2-methyl-imidazo[4,5-c]pyridin-1-yl)-benzyl]-3H-benzothiazol-2-one] gave an inhibition at 10 µM of 45%.
With `Cc1ccc2c(c1)sc(=O)n2Cc1ccc(-n2c(C)nc3cnccc32)cc1` [Example 5, 6-Methyl-3-[4-(2-methyl-imidazo[4,5-c]pyridin-1-yl)-benzyl]-3H-benzothiazol-2-one] the inhibition at 10 µM was 30%.
Molecule `CCc1nc2cnccc2n1-c1ccc(Cn2c(=O)sc3ccccc32)cc1` [Example 3, 3-[4-(2-Ethyl-imidazo[4,5-c]pyridin-1-yl)-benzyl]-3H-benzothiazol-2-one] has an inhibition at 10 µM of 72%.
Molecule `Cc1nc2ccccc2n1Cc1ccc(-n2c(C)nc3cnccc32)cc1` [Example 16, 2-Methyl-1-[4-(2-methyl-benzoimidazol-1-ylmethyl)-phenyl]1H-imidazo[4,5-c]pyridine] has an inhibition at 10 µM of 20%.
In the case of `COc1ccc2c(c1)sc(=O)n2Cc1ccc(-n2c(C)nc3cnccc32)cc1` [Example 6, 6-Methoxy-3-[4-(2-methyl-imidazo[4,5-c]pyridin-1-yl)-benzyl]-3H-benzothiazol-2-one], the inhibition at 10 µM is reported as 22%.
In the case of `CC(C)c1nc2cnccc2n1-c1ccc(Cn2c(=O)sc3ccccc32)cc1` [Example 4, 3-[4-(2-lsopropyl-imidazo[4,5-c]pyridin-1-yl)-benzyl]-3H-benzothiazol-2-one], the inhibition at 10 µM is reported as 23%.
